Source: patent publication US20080242600A1, “Backbone Cyclized Melanocortin Stimulating Hormone (Alpha Msh) Analogs” (priority 2005, published 2008)
“Also recorded” adds a separate entry of the source. *1 amine or outer side, *2 acyl side, *3 side chain or, on linkers, in order; H or OH if unused. Where a SMILES comes first, the peptide text is derived from it. Bridges are numbered along the chain shown (N, C = ends). [ ]: non-standard residue; d: D form. NGly(3-aminopropyl) = O=C(CN(CCCN[*:3])[*:1])[*:2]; N(2-Aminoethyl)Gly = O=C(CN(CCN[*:3])[*:1])[*:2]; Heptanedioyl = O=C(CCCCCC(=O)[*:2])[*:1]; Adipoyl = O=C(CCCCC(=O)[*:2])[*:1]; Glutaryl = O=C(CCCC(=O)[*:2])[*:1]; Suc = O=C(CCC(=O)[*:2])[*:1]; Nlys = NCCCCNCC(=O)O

Experiments:
MC4R [1] = molecular target: T1, MC4R (Homo sapiens, UniProt P32245); assay: Determination of receptor activation (cAMP accumulation assay); format: cell-based
T1 construct: expressed in transfected cells; host or cells: CHO cells
T1 sequence (P32245 whole entry, species assumed): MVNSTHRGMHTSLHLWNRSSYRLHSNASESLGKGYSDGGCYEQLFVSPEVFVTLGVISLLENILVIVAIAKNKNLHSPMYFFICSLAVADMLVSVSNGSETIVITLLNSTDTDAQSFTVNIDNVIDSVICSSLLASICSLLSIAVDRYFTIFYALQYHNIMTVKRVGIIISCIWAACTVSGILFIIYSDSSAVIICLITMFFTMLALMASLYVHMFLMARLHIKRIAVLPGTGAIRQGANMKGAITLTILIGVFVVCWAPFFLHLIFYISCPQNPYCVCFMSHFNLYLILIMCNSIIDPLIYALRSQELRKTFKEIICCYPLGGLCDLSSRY
Experimental: cAMP Accumulation Assays: 48 h after transfection, CHO cells are washed once with PBS and then detached from the plate with PBS containing 0.02% EDTA (Sigma). The detached cells are harvested by centrifugation and resuspended in Hanks' balanced salt solution (Invitrogen) containing 0.5 mM IBMX, 2 mM HEPES, pH 7.5 (IBMX buffer). After incubation at 37° C. for 15 min to allow for IBMX uptake, 0.4 ml of cell suspension (5×10^5 cells/ml) is added to 0.1 ml of IBMX buffer containing various concentrations of agonists or 10 μM forskolin. The cells are subsequently incubated at 37° C. for 15 min to allow for cAMP accumulation. The activity is terminated by adding 0.5 ml of 5% trichloroacetic acid, and cAMP released from lysed cells is assayed by the cAMP ^125I scintillation proximity assay system (Amersham Biosciences).
EC50 values are calculated with a 95% confidence interval using GraphPad Prism software (using nonlinear regression analysis fitted with a sigmoidal dose-response curve with variable slope).

ICR:Hsd (CD-1) male mice = assay: Effect of orally administered BBC-1 on food consumption in normal mice; format: in vivo
Experimental: ICR:Hsd (CD-1) male mice, 7-8 weeks old, were raised in separate cages and maintained at 23±1° C. on a 12-hr light, 12-hr dark cycle (0700-1900 hr light). Mice were allowed ad libitum access to water and standard chow pellets. Upon arrival mice were allowed to acclimate for 1 week. Following fasting for 16 hours, the animals (n=8) were subjected to a single oral gavage (PO, 5 ml/kg) of BBC1 (100 μg/ml, 1000 μg/ml) or vehicle (water). Immediately after administration, fixed food doses were added and re-weighed after 1, 2, 3, 4, 5, 8 and 24 hours.

MC4R [2] = molecular target: T1, MC4R; assay: Receptor binding assay (IC50 on the MC4R)
Source text: The analogs can be further tested in vitro for their influence on cyclic adenosine monophosphate (cAMP) levels. Intestinal permeability and metabolic stability of the analogs can be tested in vivo. The analogs can be further tested in vivo in preclinical models in order to identify the optimal mode of administration and proper dose, and to verify the safety and the efficacy of these new potential therapeutic drugs.
Transfected CHO cells are washed with binding buffer 8 and distributed into 96-well plates (approximately 40,000 cells/well). […] NDP-α-MSH and appropriate concentrations of an unlabelled ligand. After incubation, the cells are washed with 0.2 ml of ice-cold binding buffer and detached from the plates with 0.2 ml of 0.1 N NaOH. Radioactivity is counted (Wallac, Wizard automatic gamma counter) and data analyzed with a software package for radioligand binding analyses (Wan System, Umea, Sweden) by fitting it to formulas derived from the law of mass-action by the method generally referred to as computer modeling. The binding assays are performed in duplicate wells.

[3] = Assessment of intestinal metabolic stability in brush border membrane vesicles; format: in vitro ADME; settings: rat intestinal brush border membranes
Experimental: Brush-border membrane vesicles (BBMVs) were prepared from combined duodenum, jejunum, and upper ileum by a Ca++precipitation method (PEERCE). The intestines of 5 male Wistar rats, 200-250 g, were rinsed with ice cold 0.9% Nacl and freed of mucos, the mucosa was scraped off the luminal surface with glass slides and put immediately into buffer containing […] Kcl and 10 mM Tris-HCl (pH 7.5, 4° C.) and the mixture homogenated by Ploytron (Polytron PT 1200, Kinematica AG, Switzerland). CaCl was added to a final concentration of 10 mM. The homogenate was left shaking for 30 min at 4° C. and afterwards centrifuged at 10,000 g for 10 min (centrifuge) the supernatant was then centrifuged at 48,000 g for 30 min an additional two purification steps were undertaken by suspending the pellet in 300 mM mannitol and 10 mM Hepes/Tris (pH 7.5) and centrifuge 24,000 g/hr. Purification of brush border membranes was assayed using the brush border membrane enzyme markers GGT, LAP and alkaline phosphatase. During the course of these studies, enrichment in brush border membrane enzymes varied between 13- and 18-fold.

IC50 (MC4R [2]) [nM] | Compound | further results
110 | N=C(N)NCCC[C@@H]1NC(=O)[C@@H](Cc2ccccc2)NC(=O)[C@H](Cc2ccccc2)NC(=O)CCCC(=O)NCCCN(CC(N)=O)C(=O)[C@H](Cc2c[nH]c3ccccc23)NC1=O [BBC6] (F[dF]RW[NGly(3-aminopropyl)]-NH2; linker N-5 via Glutaryl) | 
100 | N=C(N)NCCC[C@@H]1NC(=O)[C@@H](Cc2ccccc2)NC(=O)[C@H](Cc2ccccc2)NC(=O)CCCCCC(=O)NCCCN(CC(N)=O)C(=O)[C@H](Cc2c[nH]c3ccccc23)NC1=O [BBC7] (F[dF]RW[NGly(3-aminopropyl)]-NH2; linker N-5 via Heptanedioyl) | 
60 | N=C(N)NCCC[C@@H]1NC(=O)[C@@H](Cc2ccccc2)NC(=O)[C@H](Cc2ccccc2)NC(=O)CCC(=O)NCCCN(CC(N)=O)C(=O)[C@H](Cc2c[nH]c3ccccc23)NC1=O [BBC8] (F[dF]RW[NGly(3-aminopropyl)]-NH2; linker N-5 via Suc) | 
100 | N=C(N)NCCC[C@@H]1NC(=O)[C@@H](Cc2ccccc2)NC(=O)[C@H](Cc2ccccc2)NC(=O)CCCCCC(=O)NCCN(CC(N)=O)C(=O)[C@H](Cc2c[nH]c3ccccc23)NC1=O [BBC9] (F[dF]RW[N(2-Aminoethyl)Gly]-NH2; linker N-5 via Heptanedioyl) | 
120 | N=C(N)NCCC[C@@H]1NC(=O)[C@@H](Cc2ccccc2)NC(=O)[C@H](Cc2ccccc2)NC(=O)CCCCC(=O)NCCN(CC(N)=O)C(=O)[C@H](Cc2c[nH]c3ccccc23)NC1=O [BBC10] (F[dF]RW[N(2-Aminoethyl)Gly]-NH2; linker N-5 via Adipoyl) | 
100 | N=C(N)NCCC[C@@H]1NC(=O)[C@@H](Cc2ccccc2)NC(=O)[C@H](Cc2ccccc2)NC(=O)CCCC(=O)NCCCCN(CC(N)=O)C(=O)[C@H](Cc2c[nH]c3ccccc23)NC1=O [BBC12] (F[dF]RW[Nlys]-NH2; linker N-5 via Glutaryl) | 
100 | N=C(N)NCCC[C@@H]1NC(=O)[C@@H](Cc2ccccc2)NC(=O)[C@H](Cc2ccccc2)NC(=O)CCCCC(=O)NCCCCN(CC(N)=O)C(=O)[C@H](Cc2c[nH]c3ccccc23)NC1=O [BBC13] (F[dF]RW[Nlys]-NH2; linker N-5 via Adipoyl) | 
60 | N=C(N)NCCC[C@@H]1NC(=O)[C@@H](Cc2ccccc2)NC(=O)[C@H](Cc2ccccc2)NC(=O)CCCCC(=O)NCCCN(CC(N)=O)C(=O)[C@H](Cc2c[nH]c3ccccc23)NC1=O [BBC15] (F[dF]RW[NGly(3-aminopropyl)]-NH2; linker N-5 via Adipoyl) | 

Compound | IC50 (MC4R [2]) [nM] | further results
N=C(N)NCCC[C@@H]1NC(=O)[C@@H](Cc2ccccc2)NC(=O)[C@H](Cc2ccccc2)NC(=O)CCC(=O)NCCN(CC(N)=O)C(=O)[C@H](Cc2c[nH]c3ccccc23)NC1=O [BBC1] (F[dF]RW[N(2-Aminoethyl)Gly]-NH2; linker N-5 via Suc) | 90 | MC4R functionality and selectivity (MC4R [1]): highly functional and selective; also recorded: specific activation of MC4R; food consumption (in words) (ICR:Hsd (CD-1) male mice; single oral administration, 24 hours): decreased food consumption; reduction of food consumption (ICR:Hsd (CD-1) male mice; single oral administration, over a period of 24 hr): ~40%; clinical signs post administration (ICR:Hsd (CD-1) male mice; single oral gavage, following 24 hours): did not show any special clinical signs; intestinal metabolic stability [3]: high and enzymatically stable
